Oligonucleotides are written 5' to 3', each unit as a sugar letter and its base; * is a phosphorothioate linkage, no mark a phosphodiester; rarer units and linkages stand in square brackets, end groups in braces. Plain capitals give the bases only. d = 2'-deoxy (DNA); m = 2'-O-methyl
Legend:
Assay type in all cases: cell-based, human
[1] = tested on: XIAP RNA; test: XIAP RNA knock-down in T24 cells (TaqMan quantitative PCR)
Excerpt: (§1) We used TaqMan quantitative PCR (described below) to assay for changes in mRNA levels after oligonucleotide treatment. We employed ELISA for determining XIAP protein levels and western blotting for determining HIAP1 protein levels. Transfection conditions were optimized with Lipofectamine plus or Lipofectamine 2000 (Life Technologies, Canada) on T24 bladder carcinoma cells or H460 non-small cell lung carcinoma cells, or lipofectin on SF-295 glioblastoma cells, using a fluorescein-tagged sense oligonucleotide (5′-mGmAGAAGATGACTGGTAAmCmA-3′; SEQ ID NO: 261) from XIAP spanning the start codon as a control. The results were visualized and gauged by epi-fluorescence microscopy. In the case of T24 cells, transfections were further optimized based on the ability of a published oligonucleotide to downregulate survivin expression (Li et al., Nat. Cell Biol. 1:461-466, 1999) (5′-U/TGTGCTATTCTGTGAAU/TU/T-3′ SEQ ID NO: 262). We optimized the transfection conditions based on the TaqMan results of survivin RNA knock-down detected with PCR primers and fluorescent probe, described in detail below. […] We then applied these conditions to screen for XIAP protein knock-down using the oligo library against T24 cells.
(§2) RNA was extracted from cells lysed in RLT buffer (QIAGEN, Valencia, Calif.), and purified using QIAGEN RNeasy columns/kits. Real-time quantitative PCR was performed on a Perkin-Elmer ABI 7700 Prism PCR machine. RNA was reverse transcribed and amplified according to the TaqMan Universal PCR Master Mix protocol of PE Biosystems, using primers and probes designed to specifically recognize XIAP, HIAP1, survivin, or GAPDH. For human survivin, the forward primer was 5′-[…]-3′ (SEQ ID NO: 263), the reverse primer was 5′-GAAAGGAAAGCGCAACCG-3′ (SEQ ID NO: 264), and the probe was 5′-(FAM)[…](TAMRA)-3′ (SEQ ID NO: 265). For human HIAP1, the forward primer was 5′-[…]-3′ (SEQ ID NO: 266), the reverse primer was 5′-[…]-3′ (SEQ ID NO: 267), and the probe was 5′-(FAM)[…](TAMRA)-3′ (SEQ ID NO: 268). For human XIAP, the forward primer was 5′-[…]-3′ (SEQ ID NO: 269), the reverse primer was 5′-[…]-3′ (SEQ ID NO: 270), and the probe was 5′-(FAM)[…](TAMRA)-3′ (SEQ ID NO: 271). For human GAPDH, the forward primer was 5′-GAAGGTGAAGGTCGGAGTC-3′ (SEQ ID NO: 272), the reverse primer was 5′-GAAGATGGTGATGGGATTC-3′ (SEQ ID NO: 273), and the probe was 5′-(JOE)[…](TAMRA)-3′ (SEQ ID NO: 274). FAM is 6-carboxyfluoroscein, JOE is 6-carboxy-4,5-dichloro-2,7-dimethoxyfluoroscein, and TAMRA is 6-carboxy-N,N,N′,N′-tetramethylrhodamine. FAM and JOE are 5′ reporter dyes, while TAMRA is a 3′ quencher dye.
(§3) Relative quantification of gene expression was performed as described in the PE Biosystems manual using GAPDH as an internal standard. The comparative Ct (cycle threshold) method was used for relative quantitation of IAP mRNA levels compared to GAPDH mRNA levels. Briefly, real-time fluorescence measurements were taken at each PCR cycle and the threshold cycle (Ct) value for each sample was calculated by determining the point at which fluorescence exceeded a threshold limit of 30 times the baseline standard deviation. The average baseline value and the baseline SD are calculated starting from the third cycle baseline value and stopping at the baseline value three cycles before the signal starts to exponentially rise. The PCR primers and/or probes for the specific IAPs were designed to span at least one exon-intron boundary separated by 1 kb or more of genomic DNA, to reduce the possibility of amplifying and detecting genomic DNA contamination. The specificity of the signal, and possible contamination from DNA, were verified by treating some RNA samples with either DNase or RNase, prior to performing the reverse transcription and PCR reaction steps.
The XIAP synthetic library of 96 antisense oligonucleotides was first screened for decreases in XIAP protein levels. […]

[2] = tested on: XIAP protein; test: XIAP protein knock-down in T24 cells (XIAP ELISA, relative to total protein); conditions: for XIAP protein levels relative to total protein, compared to mock transfection (in words): first screen of the library
Excerpt: as §1
A standard colorimetric XIAP ELISA assay was performed using an affinity-purified rabbit polyclonal antibody to XIAP as a capture antibody, and was detected with a XIAP monoclonal antibody (MBL, Japan) and a biotinylated anti-mouse Ig antibody and horseradish peroxidase-conjugated streptavidin and TMB substrate. Alternatively, a polyclonal XIAP or HIAP1 antibody may be used to measure XIAP or HIAP1 protein levels, respectively.
The XIAP synthetic library of 96 antisense oligonucleotides was first screened for decreases in XIAP protein levels. Specifically, T24 cells (1.5×10^4 cells/well) were seeded in wells of a 96-well plate on day 1, and were cultured in antibiotic-free McCoy's medium for 24 hours. On day 2, the cells were transfected with XIAP antisense oligonucleotides as described above (oligonucleotides are labeled according to their plated position, i.e., A1 to H12, and include two repeats, A13 and B13 that contain lyophilized DNA pellets that stuck to the sealing membrane). Briefly, the nucleobase oligomers were diluted in 10 μl/well of serum-free, antibiotic-free McCoy's medium and then PLUS reagent was added. Lipofectamine was diluted in 10 μl/well of serum-free, antibiotic-free McCoy's medium, and both mixes were incubated for 15 minutes at room temperature. The mixes were then combined and incubated for 15 minutes at room temperature.
In the meantime, the complete medium was removed from the cells and 50 μl/well of serum-free, antibiotic-free medium was added to the cells. The transfection mixes were added to the well, and the cells were incubated for three hours. Then 30 μl/well of serum-free, antibiotic-free medium and 100 μl/well of antibiotic-free complete medium, containing 20% fetal bovine serum were added to each well.
At day 3, XIAP RNA levels were measured using quantitative real-time PCR techniques, as described above. At day 4, XIAP protein levels were measured by ELISA (FIGS. 1A, 1C, 1E, 1G, 1I, and 1K), and total cellular protein was measured biochemically (FIGS. 1B, 1D, 1F, 1H, 1J, and 1L; used to normalize the XIAP protein levels). The results were compared to a mock transfection sample (treated with the transfection agent but no oligonucleotide DNA was added, and then processed as for the other samples). Time course experiments determined that the optimal time for protein knock-down to be around 12 to 24 hours. […]

[3] = tested on: XIAP mRNA; test: XIAP mRNA knock-down in H460 cells (real-time RT-PCR / TaqMan)
In short: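 NCI-H460 cells transfected with phosphorothioate antisense oligonucleotides via Lipofectamine 2000; RNA isolated after 6 h treatment. XIAP mRNA quantified by one-step TaqMan real-time RT-PCR, comparative Ct (threshold 30× baseline SD), normalized to GAPDH and expressed relative to untreated control cells.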

[4] = tested on: XIAP mRNA; test: as above; conditions: 2 × 2 MBO; NCI-H460 cells, 9 hours post-transfection; relative level (mock control 1.01)
[5] = tested on: HIAP1 mRNA; test: HIAP1 mRNA in SF295 cells, basal conditions (TaqMan); set-up: decrease of HIAP1 mRNA compared to mock or scrambled survivin control: concentration or dose not given beside the values; conditions: for HIAP1 mRNA levels (in words): SF295 cells (FIG. 21); for decrease of HIAP1 mRNA compared to mock or scrambled survivin control: SF295 cells, six hours after transfection
Method: as §2, §3
A library of 15 HIAP1 antisense nucleobase oligomers as oligonucleotides was screened for protein knock-down by western blot analysis and for RNA knock-down by TaqMan, using the primers and probes described in Example 3, above, under two different conditions. HIAP1 RNA levels may be detected using standard Northern blot analyses or RT-PCR techniques. The antisense oligonucleotides were administered to cells under basal conditions or under cycloheximide-induction conditions (24 hour treatment with sub-toxic doses). Cycloheximide (CHX) can lead to a 10- to 200-fold induction of HIAP1 mRNA depending on the cell line treated. […] This effect of CHX is via two distinct mechanisms of action. First, CHX activates NFkB, a known transcriptional inducer of HIAP1, by blocking the de novo synthesis of a labile protein, IkB, which is an inhibitor of NFkB. This effect is mimicked by puromycin, another protein synthesis inhibitor, and by TNF-alpha, which induces a signaling cascade leading to the phosphorylation, ubiquination, and degradation of IkB.
SF295 glioblastoma cells were transfected with lipofectin and oligonucleotide (scrambled survivin, no oligonucleotide, antisense APO 1 to APO 15) or left untreated. […]

[6] = tested on: HIAP1 protein; test: HIAP1 protein in cycloheximide-induced SF295 cells (western blot)
Excerpt: HIAP1 was detected on a western immunoblot using an affinity-purified anti-rat HIAP1 rabbit polyclonal antibody as a primary antibody and was detected by ECL (Amersham) on X-ray film with a secondary horseradish-peroxidase-conjugated anti-rabbit Ig antibody and a chemiluminescent substrate. The anti-HIAP1 polyclonal antibody is raised against a GST-fusion of the rat HIAP1. This antibody cross-reacts with both human and murine HIAP1 and HIAP2.
The effect of HIAP1 antisense nucleobase oligomers on HIAP1 protein and mRNA expression was also examined in cells induced to express HIAP1. SF295 cells were transfected with oligonucleotides, or were mock transfected. The transfected cells were then treated with 10 μg/ml cycloheximide for 24 hours to induce 70 kDa HIAP1 mRNA and protein. Protein levels were measured by western blot analysis with an anti-HIAP1 polyclonal antibody, and normalized against actin protein in a re-probing of the same blots. The densitometric scan results were plotted against the mock results (set at 100%) in FIG. 22B. […] The transfection process itself (e.g., mock or scrambled survivin) induces HIAP1 protein compared to the untreated sample as shown on the western immunoblot.

| Sequence | XIAP down-regulation T24 RNA [1] [%] | XIAP down-regulation T24 protein [2] [%] | XIAP protein levels relative to total protein, compared to mock transfection (in words) [2] | XIAP down-regulation H460 RNA [3] [%] | XIAP RNA [4] | HIAP1 mRNA levels (in words) [5] | decrease of HIAP1 mRNA compared to mock or scrambled survivin control [5] [%] | activity in the HIAP1 protein and mRNA assays [6] |
| --- | --- | --- | --- | --- | --- | --- | --- | --- |
| AATATGTAAACTGTGATGC (mA*mAdTdAdTdGdTdAdAdAdCdTdGdTdGdAdTmG*mC; antisense) [Code C2] | 36 | 45 | some decrease | 70 | 0.33 | – | – | – |
| CAAGTACTCACACCTTGGA (chemistry not given here) [APO 12] | – | – | – | – | – | did not cause a stress-induced increase in HIAP1 mRNA | ~50 | high activity, or had significant activity in both the protein and mRNA assays |
| CCAGTGGTTTGCAAGCATG (chemistry not given here) [APO 7] | – | – | – | – | – | did not cause a stress-induced increase in HIAP1 mRNA | ~50 | high activity, or had significant activity in both the protein and mRNA assays |
| CTTGTCCACCTTTTCTAAA (antisense; sugars from the 5' end m2 d15 m2, backbone and T or U not given here; further chemistry not fully specified) [Code E3] | 53 | 64 | some decrease | 55 | 0.48 | – | – | – |
| GAAAGGACTTTACTTTATC (antisense; sugars from the 5' end m2 d15 m2, backbone, methylation of C and T or U not given here; further chemistry not fully specified) [Code D8] | 38 | 26 | some decrease | 49 | 0.55 | – | – | – |
| GAAATTTAGTGGCCAGGAA (chemistry not given here) [APO 8] | – | – | – | – | – | did not cause a stress-induced increase in HIAP1 mRNA | ~50 | high activity, or had significant activity in both the protein and mRNA assays |
| GGGCTCAAGTAATTCTCTT (chemistry not given here) [APO 15] | – | – | – | – | – | did not cause a stress-induced increase in HIAP1 mRNA | ~50 | high activity, or had significant activity in both the protein and mRNA assays |
| GTATAAAGAAACCCTGCTC (antisense; sugars from the 5' end m2 d15 m2, backbone and T or U not given here; further chemistry not fully specified) [Code D4] | 12 | 43 | some decrease | 51 | 0.48 | – | – | – |
| GTTGTTCCCAAGGGTCTTC (antisense; sugars from the 5' end m2 d15 m2, backbone, methylation of C and T or U not given here; further chemistry not fully specified) [Code E8] | 72 | 56 | – | 44 | – | – | – | – |
| TGCCAGTGTTGATGCTGAA (antisense; chemistry not fully specified) [Code C4] | 28 | 56 | some decrease | 77 | 0.22 | – | – | – |
